Laboratory results: ChEMBL document CHEMBL5050844 (2019)

Experiments:
[1] = Induction of anti-CD3 antibodies-stimulated human T cell activation at 1.11 uM assessed fold increase in IFN-gamma secretion measured by ELISA assay; assay type: functional, T cell line; note: reference of the scale not given here
[2] = Induction of anti-CD3/CD28 antibodies-stimulated human CD8+ T cell activation at 1.11 uM assessed fold increase in CD69 expression measured by flow cytometry analysis; assay type: functional, T cell line
[3] = Induction of anti-CD3 antibodies-stimulated human exhausted T cell activation assessed fold increase in GM-CSF secretion measured by ELISA assay; assay type: functional, T cell line; note: reference of the scale not given here
[4] = Induction of anti-CD3/CD28 antibodies-stimulated human T cell activation at 0.3 uM assessed fold increase in IL-2 secretion measured by ELISA assay; assay type: functional, T cell line
[5] = Induction of anti-CD3/CD28 antibodies-stimulated human T cell activation at 10 uM assessed fold increase in IFN-gamma secretion measured by ELISA assay; assay type: functional, T cell line
[6] = Induction of anti-CD3/CD28 antibodies-stimulated human anergic T cell activation at 1.11 uM assessed fold increase in IFN-gamma secretion measured by ELISA assay; assay type: functional, T cell line
[7] = Induction of anti-CD3 antibodies-stimulated human T cell activation at 1.11 uM assessed fold increase in GM-CSF secretion measured by ELISA assay; assay type: functional, T cell line; note: reference of the scale not given here
[8] = Induction of anti-CD3 antibodies-stimulated human T cell activation at 8 uM assessed fold increase in IL-2 secretion measured by ELISA assay; assay type: functional, T cell line; note: reference of the scale not given here
[9] = Induction of anti-CD3/CD28 antibodies-stimulated human T cell activation at 1.11 uM assessed fold increase in IFN-gamma secretion measured by ELISA assay; assay type: functional, T cell line
[10] = Induction of anti-CD3/CD28 antibodies-stimulated human CD4+ T cell activation at 10 uM assessed fold increase in CD69 expression measured by flow cytometry analysis; assay type: functional, T cell line
[11] = Induction of anti-CD3 antibodies-stimulated human CD4+ T cell activation at 10 uM assessed fold increase in CD69 expression measured by flow cytometry analysis; assay type: functional, T cell line; note: reference of the scale not given here
[12] = Induction of anti-CD3 antibodies-stimulated human CD8+ T cell activation at 1.11 uM assessed fold increase in CD69 expression measured by flow cytometry analysis; assay type: functional, T cell line; note: reference of the scale not given here
[13] = Induction of anti-CD3/CD28 antibodies-stimulated human T cell activation at 10 uM assessed fold increase in GM-CSF secretion measured by ELISA assay; assay type: functional, T cell line
[14] = Induction of anti-CD3 antibodies-stimulated human T cell activation at 1 uM assessed fold increase in IL-2 secretion measured by ELISA assay; assay type: functional, T cell line; note: reference of the scale not given here
[15] = Induction of anti-CD3 antibodies-stimulated human T cell activation at 8 uM assessed fold increase in CD25 expression measured by ELISA assay; assay type: functional, T cell line; note: reference of the scale not given here
[16] = Induction of anti-CD3/CD28 antibodies-stimulated human CD4+ T cell activation at 1.11 uM assessed fold increase in cell proliferation measured by flow cytometry analysis; assay type: functional, T cell line
[17] = system: B cell; assay: Induction of anti-IgM-stimulated human CD20+ B cell activation at 10 to 1000 uM assessed as increase in CD69 expression measured as mean fluorescence intensity AUC by flow cytometry analysis; assay type: functional, cell-based; conditions: dose 10-1000 µM
[18] = Induction of anti-CD3 antibodies-stimulated human T cell activation at 1 uM assessed fold increase in CD25 expression measured by ELISA assay; assay type: functional, T cell line; note: reference of the scale not given here
[19] = Induction of anti-CD3 antibodies-stimulated human exhausted CD4+ T cell activation assessed fold increase in CTLA4 expression measured by flow cytometry analysis; assay type: functional, T cell line; note: reference of the scale not given here
[20] = Induction of activation of human CD56+ CD3- NK cells co-cultured with human K562 cells in 1:1 ratio and assessed as increase in TNF-alpha secretion at 0.625 uM measured by ELISA assay; assay type: functional, Natural killer cell
[21] = Induction of activation of human CD56+ CD3- NK cells co-cultured with human K562 cells in 1:1 ratio and assessed as increase in IFN-gamma secretion at 0.625 uM measured by ELISA assay; assay type: functional, Natural killer cell
[22] = Induction of anti-CD3 antibodies-stimulated human T cell activation at 10 uM assessed fold increase in IFN-gamma secretion measured by ELISA assay; assay type: functional, T cell line; note: reference of the scale not given here
[23] = Induction of anti-CD3/CD28 antibodies-stimulated human T cell activation at 4 uM assessed fold increase in CD25 expression measured by ELISA assay; assay type: functional, T cell line
[24] = Induction of anti-CD3/CD28 antibodies-stimulated human CD8+ T cell activation at 10 uM assessed fold increase in cell proliferation measured by flow cytometry analysis; assay type: functional, T cell line
[25] = Induction of allogenic human T cell activation at 3 uM assessed fold increase in cell proliferation; assay type: functional, T cell line
[26] = Induction of anti-CD3 antibodies-stimulated human CD8+ T cell activation at 10 uM assessed fold increase in CD69 expression measured by flow cytometry analysis; assay type: functional, T cell line; note: reference of the scale not given here
[27] = Induction of anti-CD3 antibodies-stimulated human exhausted T cell activation assessed fold increase in IL-2 secretion measured by ELISA assay; assay type: functional, T cell line; note: reference of the scale not given here
[28] = Induction of anti-CD3/CD28 antibodies-stimulated human T cell activation at 4 uM assessed fold increase in IL-2 secretion measured by ELISA assay; assay type: functional, T cell line
[29] = Induction of anti-CD3 antibodies-stimulated human exhausted T cell activation assessed fold increase in IFN-gamma secretion measured by ELISA assay; assay type: functional, T cell line; note: reference of the scale not given here
[30] = Induction of anti-CD3/CD28 antibodies-stimulated human T cell activation at 0.3 uM assessed fold increase in CD25 expression measured by ELISA assay; assay type: functional, T cell line
[31] = Induction of allogenic human T cell activation at 10 uM assessed fold increase in cell proliferation; assay type: functional, T cell line
[32] = Induction of anti-CD3/CD28 antibodies-stimulated human T cell activation at 1 uM assessed fold increase in CD25 expression measured by ELISA assay; assay type: functional, T cell line
[33] = Induction of anti-CD3 antibodies-stimulated human T cell activation at 10 uM assessed fold increase in GM-CSF secretion measured by ELISA assay; assay type: functional, T cell line; note: reference of the scale not given here
[34] = Induction of anti-CD3/CD28 antibodies-stimulated human CD8+ T cell activation at 1.11 uM assessed fold increase in cell proliferation measured by flow cytometry analysis; assay type: functional, T cell line
[35] = Induction of activation of human CD56+ CD3- NK cells co-cultured with human K562 cells in 1:1 ratio and assessed as increase in TNF-alpha secretion at 2.5 uM measured by ELISA assay; assay type: functional, Natural killer cell
[36] = Induction of anti-CD3 antibodies-stimulated human CD4+ T cell activation at 1.11 uM assessed fold increase in CD69 expression measured by flow cytometry analysis; assay type: functional, T cell line; note: reference of the scale not given here
[37] = Induction of anti-CD3/CD28 antibodies-stimulated human CD4+ T cell activation at 10 uM assessed fold increase in cell proliferation measured by flow cytometry analysis; assay type: functional, T cell line
[38] = Induction of activation of human CD56+ CD3- NK cells co-cultured with human K562 cells in 1:1 ratio and assessed as increase in IFN-gamma secretion at 10 uM measured by ELISA assay; assay type: functional, Natural killer cell
[39] = Induction of anti-CD3/CD28 antibodies-stimulated human anergic T cell activation at 10 uM assessed fold increase in IFN-gamma secretion measured by ELISA assay; assay type: functional, T cell line

SMILES	fold change (FC) [1]	fold change (FC) [2]	fold change (FC) [3]	fold change (FC) [4]	fold change (FC) [5]	fold change (FC) [6]	fold change (FC) [7]	fold change (FC) [8]	fold change (FC) [9]	fold change (FC) [10]	fold change (FC) [11]	fold change (FC) [12]	fold change (FC) [13]	fold change (FC) [14]	fold change (FC) [15]	fold change (FC) [16]	AUC [17]	fold change (FC) [18]	fold change (FC) [19]	fold change (FC) [20]	other results
Cn1cnnc1CC1(c2cccc(N3Cc4c(cc(CN5CC(F)C5)cc4C(F)(F)F)C3=O)c2)COC1	2.01	1.201	>1.61	5	>4	2.51	2.01	>=0.201	3.01	1.401	>1.601	1.201	>4	0.151	>=1.001	>4	1.01	>=1.001	>1.61	1.01	fold change (FC) [21]: 2.01; fold change (FC) [22]: >4; fold change (FC) [23]: 1.51; fold change (FC) [24]: >4; fold change (FC) [25]: 2.01; fold change (FC) [26]: 1.401; fold change (FC) [27]: <=2.5; fold change (FC) [28]: >=7.5; fold change (FC) [29]: >1.61; fold change (FC) [30]: 1.31; fold change (FC) [31]: >3; fold change (FC) [32]: 1.31; fold change (FC) [33]: >4; fold change (FC) [34]: 3.01; fold change (FC) [35]: 2.01; fold change (FC) [36]: >1.601; fold change (FC) [37]: >4; fold change (FC) [38]: >=5; fold change (FC) [39]: >4.01
C[C@H](Cc1nncn1C)c1cccc(NC(=O)c2nc(C(F)(F)F)c[nH]2)c1	<=2	<=1.2	<=1.4	1.01	2.01	<=2.5	1.51	>=0.201	<=2	1.401	1.401	<=1.2	2.01	0.051	>=1.001	2.01	< 0.5	0.801	<=1.4	1.01	fold change (FC) [21]: 2.01; fold change (FC) [22]: 2.01; fold change (FC) [23]: 1.01; fold change (FC) [24]: 3.01; fold change (FC) [25]: <=2; fold change (FC) [26]: 1.201; fold change (FC) [27]: >3.01; fold change (FC) [28]: 2.51; fold change (FC) [29]: >1.61; fold change (FC) [30]: 1.01; fold change (FC) [31]: <=2; fold change (FC) [32]: 1.01; fold change (FC) [33]: 2.01; fold change (FC) [34]: 2.01; fold change (FC) [35]: 2.01; fold change (FC) [36]: 1.201; fold change (FC) [37]: >4; fold change (FC) [38]: 2.01; fold change (FC) [39]: 2.51
C[C@H](Cc1nncn1C)c1cccc(N2Cc3c(ccnc3C3CC3)C2=O)c1	<=2	<=1.2	<=1.4	1.01	2.01	<=2.5	1.51	>=0.201	<=2	1.401	1.201	<=1.2	>4	0.151	>=1.001	2.01	0.5	0.601	<=1.4	1.01	fold change (FC) [21]: 2.01; fold change (FC) [22]: 2.01; fold change (FC) [23]: 1.31; fold change (FC) [24]: 3.01; fold change (FC) [25]: <=2; fold change (FC) [26]: 1.201; fold change (FC) [27]: <=2.5; fold change (FC) [28]: 1.01; fold change (FC) [29]: >1.61; fold change (FC) [30]: 1.01; fold change (FC) [31]: <=2; fold change (FC) [32]: 1.01; fold change (FC) [33]: 2.01; fold change (FC) [34]: <=2; fold change (FC) [35]: 1.01; fold change (FC) [36]: <=1.2; fold change (FC) [37]: >4; fold change (FC) [38]: 2.01; fold change (FC) [39]: 2.51
